Test results taken from patent publication US20120029187A1, “HALOALKYLSULFONANILIDE DERIVATIVE” (Nissan Chemical Industries, Ltd., priority 2009, published 2012).

Legend:
Format in all cases: in vivo
barnyardgrass [1] = assay: Test Example 1: herbicidal effects in preemergence treatment under submerged conditions; settings: dose 2.52 g/a
Procedure, shortened: (§1)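 Submerged conditions, 4 cm water over alluvial soil. Weeds sown and 2.5-leaf rice transplanted; compound applied preemergence to water surface, doses in g per are. Greenhouse, 25 to 30° C., three weeks, then 0–5 mortality rating.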

bulrush [2] = assay: as above; settings: dose 2.52 g/a
Procedure, shortened: as §1

ducksalad [3] = assay: as above; settings: dose 2.52 g/a
Procedure, shortened: as §1

barnyardgrass [4] = assay: Test Example 2: herbicidal effects during the vegetation period under submerged conditions; settings: treatment during the vegetation period under submerged conditions; dose 2.52 g/a
Procedure, shortened: (§2)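 Barnyardgrass, bulrush and ducksalad were co-sown in alluvial soil flooded to 4 cm and grown in a greenhouse at 25 to 30° C. At the 1- or 2-leaf stage, water-diluted emulsifiable concentrates went onto the water surface at set doses (g/a). Herbicidal effect was scored three weeks later on a graded scale.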

bulrush [5] = assay: as above; settings: treatment during the vegetation period under submerged conditions; dose 2.52 g/a
Procedure, shortened: as §2

ducksalad [6] = assay: as above; settings: treatment during the vegetation period under submerged conditions; dose 2.52 g/a
Procedure, shortened: as §2

Italian ryegrass [7] = assay: Test Example 3: herbicidal effects in soil treatment
Procedure, shortened: (§3)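 Seeds were sown in sterilized diluvial soil and covered with about 1.5 cm of soil. Compounds, formulated as emulsifiable concentrates and diluted with water, were sprayed evenly over the soil surface at set doses in g/a. Herbicidal effect was scored on a rating scale three weeks later.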

barnyardgrass [8] = assay: as above
Procedure, shortened: as §3

common chickweed [9] = assay: as above
Procedure, shortened: as §3

common lambsquater [10] = assay: as above
Procedure, shortened: as §3

common ragweed [11] = assay: as above
Procedure, shortened: as §3

giant foxtail [12] = assay: as above
Procedure, shortened: as §3

large crabgrass [13] = assay: as above
Procedure, shortened: as §3

redroot pigweed [14] = assay: as above
Procedure, shortened: as §3

water foxtail [15] = assay: as above
Procedure, shortened: as §3

wild oat [16] = assay: as above; settings: dose 6.3 g/a
Procedure, shortened: as §3

Italian ryegrass [17] = assay: Test Example 4: herbicidal effect in foliage treatment
Procedure, shortened: (§4)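 14-day greenhouse-grown plants (25–30° C) sprayed on foliage with diluted EC; dose as g/a; effect graded after 3 weeks.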

barnyardgrass [18] = assay: as above
Procedure, shortened: as §4

beadstraw = assay: as above
Procedure, shortened: as §4

common chickweed [19] = assay: as above
Procedure, shortened: as §4

common lambsquater [20] = assay: as above
Procedure, shortened: as §4

common ragweed [21] = assay: as above
Procedure, shortened: as §4

giant foxtail [22] = assay: as above
Procedure, shortened: as §4

large crabgrass [23] = assay: as above
Procedure, shortened: as §4

redroot pigweed [24] = assay: as above
Procedure, shortened: as §4

water foxtail [25] = assay: as above
Procedure, shortened: as §4

wild oat [26] = assay: as above
Procedure, shortened: as §4

transplanted rice = assay: Test Example 1: preemergence treatment under submerged conditions, effect on crop; settings: dose 2.52 g/a
Procedure, shortened: as §1

posumbu knotweed [27] = assay: Test Example 3: herbicidal effects in soil treatment; settings: dose 3.2 g/a
Procedure, shortened: as §3

posumbu knotweed [28] = assay: Test Example 4: herbicidal effect in foliage treatment; settings: dose 3.2 g/a, three weeks after application
Procedure, shortened: as §4

velvetleaf = assay: as above; settings: dose 3.2 g/a, three weeks after application
Procedure, shortened: as §4

[29] = dose 6.3 g/a, three weeks after the application
[30] = dose 6.3 g/a, three weeks after application
[31] = dose 3.2 g/a, three weeks after application

Compound: O=C1CCOCCN1Cc1ccccc1NS(=O)(=O)C(F)(F)F [Compound V-1]
- A: barnyardgrass, herbicidal effect (evaluation scale 0-5) (barnyardgrass [1]): 5 (mortality of 90% or above (nearly complete death))
- B: bulrush, herbicidal effect (evaluation scale 0-5) (bulrush [2]): 5 (mortality of 90% or above (nearly complete death))
- C: ducksalad, herbicidal effect (evaluation scale 0-5) (ducksalad [3]): 5 (mortality of 90% or above (nearly complete death))
- A: barnyardgrass, herbicidal effect (evaluation scale 0-5) (barnyardgrass [4]): 5 (mortality of 90% or above (nearly complete death))
- B: bulrush, herbicidal effect (evaluation scale 0-5) (bulrush [5]): 5 (mortality of 90% or above (nearly complete death))
- C: ducksalad, herbicidal effect (evaluation scale 0-5) (ducksalad [6]): 5 (mortality of 90% or above (nearly complete death))
- herbicidal effect, H: Italian ryegrass (Italian ryegrass [7]; dose 6.3 g/a): 3 (mortality of at least 40% and less than 70%)
- herbicidal effect, A: barnyardgrass (barnyardgrass [8]; dose 6.3 g/a): 5 (mortality of 90% or above (nearly complete death))
- herbicidal effect, N: common chickweed (common chickweed [9]; dose 6.3 g/a): 5 (mortality of 90% or above (nearly complete death))
- herbicidal effect, L: common lambsquater (common lambsquater [10]; dose 6.3 g/a): 5 (mortality of 90% or above (nearly complete death))
- herbicidal effect, J: common ragweed (common ragweed [11]; dose 6.3 g/a): 5 (mortality of 90% or above (nearly complete death))
- herbicidal effect, E: giant foxtail (giant foxtail [12]; dose 6.3 g/a): 4 (mortality of at least 70% and less than 90%)
- herbicidal effect, D: large crabgrass (large crabgrass [13]; dose 6.3 g/a): 0 (mortality of less than 5% (almost ineffective))
- herbicidal effect, K: redroot pigweed (redroot pigweed [14]; dose 6.3 g/a): 4 (mortality of at least 70% and less than 90%)
- herbicidal effect, G: water foxtail (water foxtail [15]; dose 6.3 g/a): 5 (mortality of 90% or above (nearly complete death))
- herbicidal effect, F: wild oat (wild oat [16]): 3 (mortality of at least 40% and less than 70%)
- H: Italian ryegrass, herbicidal effect (Italian ryegrass [17]; [29]): 3 (mortality of at least 40% and less than 70%)
- A: barnyardgrass, herbicidal effect (barnyardgrass [18]; [29]): 5 (mortality of 90% or above (nearly complete death))
- O: beadstraw, herbicidal effect (beadstraw; [29]): 4 (mortality of at least 70% and less than 90%)
- N: common chickweed, herbicidal effect (common chickweed [19]; [29]): 4 (mortality of at least 70% and less than 90%)
- L: common lambsquater, herbicidal effect (common lambsquater [20]; [29]): 4 (mortality of at least 70% and less than 90%)
- J: common ragweed, herbicidal effect (common ragweed [21]; [29]): 5 (mortality of 90% or above (nearly complete death))
- E: giant foxtail, herbicidal effect (giant foxtail [22]; [29]): 5 (mortality of 90% or above (nearly complete death))
- D: large crabgrass, herbicidal effect (large crabgrass [23]; [29]): 4 (mortality of at least 70% and less than 90%)
- K: redroot pigweed, herbicidal effect (redroot pigweed [24]; [29]): 1 (mortality of at least 5% and less than 20%)
- G: water foxtail, herbicidal effect (water foxtail [25]; [29]): 5 (mortality of 90% or above (nearly complete death))
- F: wild oat, herbicidal effect (wild oat [26]; [29]): 0 (mortality of less than 5% (almost ineffective))

Compound: CCC(=O)N(c1ccccc1CN1COC(C)CC1=O)S(=O)(=O)C(F)(F)F (stereo not drawn) [II-5]
- A: barnyardgrass, herbicidal effect (evaluation scale 0-5) (barnyardgrass [1]): 5 (mortality of 90% or above (nearly complete death))
- B: bulrush, herbicidal effect (evaluation scale 0-5) (bulrush [2]): 5 (mortality of 90% or above (nearly complete death))
- C: ducksalad, herbicidal effect (evaluation scale 0-5) (ducksalad [3]): 5 (mortality of 90% or above (nearly complete death))
- A: barnyardgrass, herbicidal effect (evaluation scale 0-5) (barnyardgrass [4]): 5 (mortality of 90% or above (nearly complete death))
- B: bulrush, herbicidal effect (evaluation scale 0-5) (bulrush [5]): 5 (mortality of 90% or above (nearly complete death))
- C: ducksalad, herbicidal effect (evaluation scale 0-5) (ducksalad [6]): 5 (mortality of 90% or above (nearly complete death))
- H: Italian ryegrass, herbicidal effect (evaluation scale 0-5) (Italian ryegrass [7]; dose 6.3 g/a): 4 (mortality of at least 70% and less than 90%)
- A: barnyardgrass, herbicidal effect (evaluation scale 0-5) (barnyardgrass [8]; dose 6.3 g/a): 5 (mortality of 90% or above (nearly complete death))
- N: common chickweed, herbicidal effect (evaluation scale 0-5) (common chickweed [9]; dose 6.3 g/a): 5 (mortality of 90% or above (nearly complete death))
- L: common lambsquater, herbicidal effect (evaluation scale 0-5) (common lambsquater [10]; dose 6.3 g/a): 4 (mortality of at least 70% and less than 90%)
- J: common ragweed, herbicidal effect (evaluation scale 0-5) (common ragweed [11]; dose 6.3 g/a): 4 (mortality of at least 70% and less than 90%)
- E: giant foxtail, herbicidal effect (evaluation scale 0-5) (giant foxtail [12]; dose 6.3 g/a): 3 (mortality of at least 40% and less than 70%)
- D: large crabgrass, herbicidal effect (evaluation scale 0-5) (large crabgrass [13]; dose 6.3 g/a): 5 (mortality of 90% or above (nearly complete death))
- K: redroot pigweed, herbicidal effect (evaluation scale 0-5) (redroot pigweed [14]; dose 6.3 g/a): 1 (mortality of at least 5% and less than 20%)
- G: water foxtail, herbicidal effect (evaluation scale 0-5) (water foxtail [15]; dose 6.3 g/a): 5 (mortality of 90% or above (nearly complete death))
- F: wild oat, herbicidal effect (evaluation scale 0-5) (wild oat [16]): 0 (mortality of less than 5% (almost ineffective))
- H: Italian ryegrass, herbicidal effect (Italian ryegrass [17]; [30]): 3 (mortality of at least 40% and less than 70%)
- A: barnyardgrass, herbicidal effect (barnyardgrass [18]; [30]): 5 (mortality of 90% or above (nearly complete death))
- O: beadstraw, herbicidal effect (beadstraw; [30]): 0 (mortality of less than 5% (almost ineffective))
- N: common chickweed, herbicidal effect (common chickweed [19]; [30]): 3 (mortality of at least 40% and less than 70%)
- L: common lambsquater, herbicidal effect (common lambsquater [20]; [30]): 3 (mortality of at least 40% and less than 70%)
- J: common ragweed, herbicidal effect (common ragweed [21]; [30]): 5 (mortality of 90% or above (nearly complete death))
- E: giant foxtail, herbicidal effect (giant foxtail [22]; [30]): 5 (mortality of 90% or above (nearly complete death))
- D: large crabgrass, herbicidal effect (large crabgrass [23]; [30]): 5 (mortality of 90% or above (nearly complete death))
- K: redroot pigweed, herbicidal effect (redroot pigweed [24]; [30]): 0 (mortality of less than 5% (almost ineffective))
- G: water foxtail, herbicidal effect (water foxtail [25]; [30]): 5 (mortality of 90% or above (nearly complete death))
- F: wild oat, herbicidal effect (wild oat [26]; [30]): 0 (mortality of less than 5% (almost ineffective))

Compound: CCOC(=O)N(c1ccccc1CN1COC(c2ccccc2)CC1=O)S(=O)(=O)C(F)(F)F (stereo not drawn) [II-10]
- A: barnyardgrass, herbicidal effect (evaluation scale 0-5) (barnyardgrass [1]): 5 (mortality of 90% or above (nearly complete death))
- B: bulrush, herbicidal effect (evaluation scale 0-5) (bulrush [2]): 5 (mortality of 90% or above (nearly complete death))
- C: ducksalad, herbicidal effect (evaluation scale 0-5) (ducksalad [3]): 5 (mortality of 90% or above (nearly complete death))
- a: transplanted rice, effect on crop (evaluation scale 0-5) (transplanted rice): 0 (mortality of less than 5% (almost ineffective))
- A: barnyardgrass, herbicidal effect (evaluation scale 0-5) (barnyardgrass [4]): 4 (mortality of at least 70% and less than 90%)
- B: bulrush, herbicidal effect (evaluation scale 0-5) (bulrush [5]): 5 (mortality of 90% or above (nearly complete death))
- C: ducksalad, herbicidal effect (evaluation scale 0-5) (ducksalad [6]): 5 (mortality of 90% or above (nearly complete death))
- H: Italian ryegrass, herbicidal effect (evaluation scale 0-5) (Italian ryegrass [7]; dose 3.2 g/a): 2 (mortality of at least 20% and less than 40%)
- A: barnyardgrass, herbicidal effect (evaluation scale 0-5) (barnyardgrass [8]; dose 3.2 g/a): 4 (mortality of at least 70% and less than 90%)
- N: common chickweed, herbicidal effect (evaluation scale 0-5) (common chickweed [9]; dose 3.2 g/a): 5 (mortality of 90% or above (nearly complete death))
- L: common lambsquater, herbicidal effect (evaluation scale 0-5) (common lambsquater [10]; dose 3.2 g/a): 3 (mortality of at least 40% and less than 70%)
- J: common ragweed, herbicidal effect (evaluation scale 0-5) (common ragweed [11]; dose 3.2 g/a): 0 (mortality of less than 5% (almost ineffective))
- E: giant foxtail, herbicidal effect (evaluation scale 0-5) (giant foxtail [12]; dose 3.2 g/a): 4 (mortality of at least 70% and less than 90%)
- D: large crabgrass, herbicidal effect (evaluation scale 0-5) (large crabgrass [13]; dose 3.2 g/a): 4 (mortality of at least 70% and less than 90%)
- M: posumbu knotweed, herbicidal effect (evaluation scale 0-5) (posumbu knotweed [27]): 0 (mortality of less than 5% (almost ineffective))
- K: redroot pigweed, herbicidal effect (evaluation scale 0-5) (redroot pigweed [14]; dose 3.2 g/a): 0 (mortality of less than 5% (almost ineffective))
- G: water foxtail, herbicidal effect (evaluation scale 0-5) (water foxtail [15]; dose 3.2 g/a): 5 (mortality of 90% or above (nearly complete death))
- H: Italian ryegrass, herbicidal effect (Italian ryegrass [17]; [31]): 1 (mortality of at least 5% and less than 20%)
- A: barnyardgrass, herbicidal effect (barnyardgrass [18]; [31]): 4 (mortality of at least 70% and less than 90%)
- O: beadstraw, herbicidal effect (beadstraw; [31]): 3 (mortality of at least 40% and less than 70%)
- N: common chickweed, herbicidal effect (common chickweed [19]; [31]): 4 (mortality of at least 70% and less than 90%)
- L: common lambsquater, herbicidal effect (common lambsquater [20]; [31]): 3 (mortality of at least 40% and less than 70%)
- J: common ragweed, herbicidal effect (common ragweed [21]; [31]): 3 (mortality of at least 40% and less than 70%)
- E: giant foxtail, herbicidal effect (giant foxtail [22]; [31]): 3 (mortality of at least 40% and less than 70%)
- D: large crabgrass, herbicidal effect (large crabgrass [23]; [31]): 0 (mortality of less than 5% (almost ineffective))
- M: posumbu knotweed, herbicidal effect (posumbu knotweed [28]): 4 (mortality of at least 70% and less than 90%)
- K: redroot pigweed, herbicidal effect (redroot pigweed [24]; [31]): 0 (mortality of less than 5% (almost ineffective))
- I: velvetleaf, herbicidal effect (velvetleaf): 4 (mortality of at least 70% and less than 90%)
- G: water foxtail, herbicidal effect (water foxtail [25]; [31]): 4 (mortality of at least 70% and less than 90%)
- F: wild oat, herbicidal effect (wild oat [26]; [31]): 0 (mortality of less than 5% (almost ineffective))
